{"source": "paper PMC3433420", "about": "(PLoS ONE, 2012)", "experiment_in_all_cases": "In-house protein microarrays (with or without 5 mM DTT), protein named per line", "type_in_all_cases": "binding", "key": {"SH2 and PTB domains [1]": {"target": "T1, SH2 and PTB domains (Homo sapiens, UniProt P42680)", "T1 construct": "thioredoxin; made in house; host or cells: BL21(DE3)pLysS E. coli", "T1 sequence (P42680 1-631)": "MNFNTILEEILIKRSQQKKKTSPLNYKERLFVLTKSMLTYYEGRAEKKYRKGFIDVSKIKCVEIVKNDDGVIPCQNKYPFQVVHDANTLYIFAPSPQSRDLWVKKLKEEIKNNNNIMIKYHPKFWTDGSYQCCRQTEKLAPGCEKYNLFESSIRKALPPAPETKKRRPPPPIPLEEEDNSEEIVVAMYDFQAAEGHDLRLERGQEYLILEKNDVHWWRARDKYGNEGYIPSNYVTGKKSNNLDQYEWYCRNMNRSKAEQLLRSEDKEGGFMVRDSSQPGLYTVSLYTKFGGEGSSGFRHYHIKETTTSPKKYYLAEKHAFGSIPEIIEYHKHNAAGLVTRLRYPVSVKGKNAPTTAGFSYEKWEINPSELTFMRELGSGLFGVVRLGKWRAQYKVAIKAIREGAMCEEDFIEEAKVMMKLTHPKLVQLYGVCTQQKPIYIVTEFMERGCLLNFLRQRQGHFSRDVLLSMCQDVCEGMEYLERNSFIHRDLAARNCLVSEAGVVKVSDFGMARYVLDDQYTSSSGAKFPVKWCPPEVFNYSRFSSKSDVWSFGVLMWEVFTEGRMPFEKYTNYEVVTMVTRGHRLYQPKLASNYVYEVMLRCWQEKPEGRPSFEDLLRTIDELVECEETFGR", "conditions": "protein TEC", "outline": "(§1)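 Recombinant domains (~40 µM) spotted in duplicate on aldehyde slides, quenched 1 h at room temperature in HEPES/KCl/Tween-20 buffer pH 7.8 with 5 mM DTT and 1% BSA, then probed with rhodamine-labeled peptide. Thioredoxin-subtracted mean fluorescence fitted for KD.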"}, "SH2 and PTB domains [2]": {"target": "T2, SH2 and PTB domains (Homo sapiens, UniProt P29353)", "T2 construct": "thioredoxin; made in house; host or cells: BL21(DE3)pLysS E. coli", "T2 sequence (P29353 1-583)": "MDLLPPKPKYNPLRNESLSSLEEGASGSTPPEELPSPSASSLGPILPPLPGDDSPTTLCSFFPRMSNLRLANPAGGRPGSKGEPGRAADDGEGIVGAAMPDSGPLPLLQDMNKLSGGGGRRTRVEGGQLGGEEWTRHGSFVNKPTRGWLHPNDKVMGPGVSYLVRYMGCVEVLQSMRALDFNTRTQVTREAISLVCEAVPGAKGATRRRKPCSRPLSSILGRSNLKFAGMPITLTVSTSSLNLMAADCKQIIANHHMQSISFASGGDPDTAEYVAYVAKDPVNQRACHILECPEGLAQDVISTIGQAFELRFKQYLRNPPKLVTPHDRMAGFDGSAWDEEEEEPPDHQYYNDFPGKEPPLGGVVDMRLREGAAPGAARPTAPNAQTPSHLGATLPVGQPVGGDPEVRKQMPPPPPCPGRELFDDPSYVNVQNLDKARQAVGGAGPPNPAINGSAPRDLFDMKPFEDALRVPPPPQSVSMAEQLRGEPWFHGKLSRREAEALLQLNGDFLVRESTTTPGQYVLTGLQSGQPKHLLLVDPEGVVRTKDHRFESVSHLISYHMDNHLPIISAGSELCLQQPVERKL", "conditions": "protein SHC1, array fabrication # 39329", "outline": "as §1"}, "SH2 and PTB domains [3]": {"target": "T3, SH2 and PTB domains (Homo sapiens, UniProt P29350)", "T3 construct": "thioredoxin; made in house; host or cells: BL21(DE3)pLysS E. coli", "T3 sequence (P29350 whole entry, the tested form may be a part)": "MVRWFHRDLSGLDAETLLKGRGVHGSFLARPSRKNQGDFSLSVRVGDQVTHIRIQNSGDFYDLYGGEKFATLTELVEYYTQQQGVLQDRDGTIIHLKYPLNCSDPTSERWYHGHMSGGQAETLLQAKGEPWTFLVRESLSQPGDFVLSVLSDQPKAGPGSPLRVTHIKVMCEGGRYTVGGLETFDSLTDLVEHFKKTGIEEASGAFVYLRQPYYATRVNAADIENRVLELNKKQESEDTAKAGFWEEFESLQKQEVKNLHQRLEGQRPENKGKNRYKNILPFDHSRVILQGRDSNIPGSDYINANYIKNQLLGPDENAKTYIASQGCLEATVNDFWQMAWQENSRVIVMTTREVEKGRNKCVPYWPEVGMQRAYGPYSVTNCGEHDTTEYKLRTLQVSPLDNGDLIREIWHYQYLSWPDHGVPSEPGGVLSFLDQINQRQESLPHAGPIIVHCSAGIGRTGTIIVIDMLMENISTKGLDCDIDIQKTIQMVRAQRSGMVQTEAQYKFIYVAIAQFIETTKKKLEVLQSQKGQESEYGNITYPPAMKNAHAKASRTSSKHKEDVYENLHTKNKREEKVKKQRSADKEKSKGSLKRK", "outline": "as §1"}, "SH2 and PTB domains [4]": {"target": "T4, SH2 and PTB domains (Homo sapiens, UniProt Q08881)", "T4 construct": "thioredoxin; made in house; host or cells: BL21(DE3)pLysS E. coli", "T4 sequence (Q08881 1-620)": "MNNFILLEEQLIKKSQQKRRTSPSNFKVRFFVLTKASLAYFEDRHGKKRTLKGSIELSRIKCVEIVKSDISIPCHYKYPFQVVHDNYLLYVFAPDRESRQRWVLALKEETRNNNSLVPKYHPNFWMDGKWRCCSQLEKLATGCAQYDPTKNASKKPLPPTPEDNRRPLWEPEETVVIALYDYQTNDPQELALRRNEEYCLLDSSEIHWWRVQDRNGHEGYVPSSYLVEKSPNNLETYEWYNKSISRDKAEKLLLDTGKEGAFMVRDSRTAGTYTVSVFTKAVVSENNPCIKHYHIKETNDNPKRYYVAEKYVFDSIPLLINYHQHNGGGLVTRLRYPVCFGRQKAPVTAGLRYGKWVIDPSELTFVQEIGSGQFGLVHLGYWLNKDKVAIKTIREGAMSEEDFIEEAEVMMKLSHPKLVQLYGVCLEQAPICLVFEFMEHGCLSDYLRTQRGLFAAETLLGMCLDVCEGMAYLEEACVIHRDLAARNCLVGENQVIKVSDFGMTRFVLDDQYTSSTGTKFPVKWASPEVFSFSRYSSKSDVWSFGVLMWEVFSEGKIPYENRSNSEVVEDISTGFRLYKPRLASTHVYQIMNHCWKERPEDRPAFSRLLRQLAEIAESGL", "conditions": "protein ITK", "outline": "as §1"}, "[5]": {"conditions": "PM assay replicate # 39336, array fabrication # 39329"}, "[6]": {"conditions": "PM assay replicate # 39337, array fabrication # 39329"}}, "note": "Residues, ends and D or L forms follow the SMILES beside them."}
{"smiles": "CC(C)C[C@H](NC(=O)[C@@H]1CCCN1)C(=O)N[C@@H](CCC(N)=O)C(=O)N[C@@H](CCCNC(=N)N)C(=O)N[C@@H](Cc1ccc(OP(=O)(O)O)cc1)C(=O)N[C@@H](CO)C(=O)N[C@@H](CCC(=O)O)C(=O)N[C@@H](CC(=O)O)C(=O)N1CCC[C@H]1C(=O)N[C@H](C(=O)N[C@H](C(=O)N1CCC[C@H]1C(=O)N[C@@H](CC(=O)O)C(=O)O)C(C)C)[C@@H](C)O", "note": "[ErbB2 pY1112] (HELM PEPTIDE1{P.L.Q.R.[O=C([C@H](Cc1ccc(OP(=O)(O)O)cc1)N[*:1])[*:2]].S.E.D.P.T.V.P.D}$$$$V2.0)", "values": [{"measurement": "Kd", "setting": "SH2 and PTB domains [1]; PM assay replicate # 39331, array fabrication # 39329", "value": 26.53, "unit": "µM"}, {"measurement": "Kd", "setting": "SH2 and PTB domains [1]; [5]", "value": 5.07, "unit": "µM"}, {"measurement": "Kd", "setting": "SH2 and PTB domains [2]; PM assay replicate # 39331", "value": 1.26, "unit": "µM"}, {"measurement": "Kd", "setting": "SH2 and PTB domains [2]; PM assay replicate # 39336", "value": 3.06, "unit": "µM"}]}
{"smiles": "CC(C)C[C@H](NC(=O)[C@@H]1CCCN1C(=O)[C@H](C)NC(=O)[C@@H](NC(=O)[C@H](Cc1ccc(OP(=O)(O)O)cc1)NC(=O)CNC(=O)[C@H](CC(=O)O)NC(=O)[C@@H](NC(=O)[C@@H](N)CCC(=O)O)[C@@H](C)O)C(C)C)C(=O)N[C@H](C(=O)N[C@@H](CS)C(=O)N[C@@H](CO)C(=O)N[C@@H](CC(=O)O)C(=O)O)[C@@H](C)O", "note": "[ErbB2 pY1127]", "values": [{"measurement": "Kd", "setting": "SH2 and PTB domains [1]; [5]", "value": 1.60, "unit": "µM"}, {"measurement": "Kd", "setting": "SH2 and PTB domains [1]; [6]", "value": 0.04, "unit": "µM"}, {"measurement": "Kd", "setting": "SH2 and PTB domains [1]; PM assay replicate # 39603, array fabrication # 39392", "value": 0.25, "unit": "µM"}, {"measurement": "Kd", "setting": "SH2 and PTB domains [3]; protein PTPN6-NC, PM assay replicate # 39336, array fabrication # 39329", "value": 1.62, "unit": "µM"}, {"measurement": "Kd", "setting": "SH2 and PTB domains [3]; protein PTPN6-NC, PM assay replicate # 39337, array fabrication # 39329", "value": 1.62, "unit": "µM"}, {"measurement": "Kd", "setting": "SH2 and PTB domains [4]; [5]", "value": 0.80, "unit": "µM"}, {"measurement": "Kd", "setting": "SH2 and PTB domains [4]; [6]", "value": 2.58, "unit": "µM"}, {"measurement": "Kd", "setting": "SH2 and PTB domains [2]; PM assay replicate # 39336", "value": 0.98, "unit": "µM"}, {"measurement": "Kd", "setting": "SH2 and PTB domains [2]; PM assay replicate # 39337", "value": 0.82, "unit": "µM"}]}
{"smiles": "CCN(CC)c1ccc2c(-c3ccc(C(=O)N[C@@H](CC(N)=O)C(=O)NCC(=O)N4CCC[C@H]4C(=O)N4CCC[C@H]4C(=O)N[C@@H](CCCCN)C(=O)N[C@@H](C)C(=O)N[C@@H](CCC(=O)O)C(=O)N[C@@H](CC(=O)O)C(=O)N[C@@H](CCC(=O)O)C(=O)N[C@@H](Cc4ccc(OP(=O)(O)O)cc4)C(=O)N[C@H](C(=O)N[C@@H](CC(N)=O)C(=O)N[C@@H](CCC(=O)O)C(=O)N4CCC[C@H]4C(=O)N[C@@H](CC(C)C)C(=O)N[C@@H](Cc4ccc(O)cc4)C(=O)N[C@@H](CC(C)C)C(=O)N[C@@H](CC(=O)O)C(=O)O)C(C)C)cc3C(=O)[O-])c3ccc(=[N+](CC)CC)cc-3oc2c1", "note": "[ErbB4 1202 (18-mer)] (HELM PEPTIDE1{[CCN(CC)c1ccc2c(-c3ccc(C(=O)[*:2])cc3C(=O)[O-])c3ccc(=[N+](CC)CC)cc-3oc2c1].N.G.P.P.K.A.E.D.E.[O=C([C@H](Cc1ccc(OP(=O)(O)O)cc1)N[*:1])[*:2]].V.N.E.P.L.Y.L.D}$$$$V2.0)", "values": [{"measurement": "Kd", "setting": "SH2 and PTB domains [4]; PM assay replicate # 39307, array fabrication # 39286", "value": 0.72, "unit": "µM"}]}
{"smiles": "CC[C@H](C)[C@H](NC(=O)[C@H](CC(N)=O)NC(=O)[C@H](CC(N)=O)NC(=O)[C@H](CCCCN)NC(=O)[C@H](CC(C)C)NC(=O)[C@H](Cc1ccc(OP(=O)(O)O)cc1)NC(=O)[C@H](CCC(=O)O)NC(=O)[C@H](C)NC(=O)[C@H](CCCCN)NC(=O)CNC(=O)[C@H](CC(C)C)NC(=O)[C@@H](NC(=O)[C@H](CC(N)=O)NC(=O)[C@H](C)NC(=O)[C@@H](N)Cc1ccccc1)[C@@H](C)O)C(=O)N[C@@H](CC(C)C)C(=O)N[C@@H](CO)C(=O)N[C@@H](CC(=O)O)C(=O)O", "note": "[ErbB4 pY1221 (18-mer)] (HELM PEPTIDE1{F.A.N.T.L.G.K.A.E.[O=C([C@H](Cc1ccc(OP(=O)(O)O)cc1)N[*:1])[*:2]].L.K.N.N.I.L.S.D}$$$$V2.0)", "values": [{"measurement": "Kd", "setting": "SH2 and PTB domains [3]; protein PTPN6-C, PM assay replicate # 39307, array fabrication # 39286", "value": 716.01, "unit": "µM"}]}
